Assay type in all cases: in vivo
The test system of one assay is tobacco whitefly. Kind of assay: Test Example 4: test diluent scattered on tomato seedling with hatched tobacco whitefly larvae. Particulars: 168 h; 500 ppm, 10 ml/cup scattered on tomato seedling at larvae stage, counted after seven days at 25° C.; read-out: Control value. The method, then:
The formulations were diluted with water so that the concentration of the active ingredient became 500 ppm and thus test diluents were prepared. On the other hand, by releasing tobacco whitefly imagos to a tomato seedling planted in a plastic cup to allow them to lay eggs for about 24 hours. The tomato seedling was kept in a green house for eight days. At the stage in which larvae hatched from the laid eggs, any of the test diluents was scattered at the rate of 10 ml/cup. The tomato seedling was kept in the greenhouse at 25° C. for seven days. The number of survived larvae on tomato leaves was counted, and the control value was calculated by the following equation. Control value(%)={1−(Cb×Tai)/(Cai×Tb)}×100 wherein each character represents the following meaning: Cb: number of insects in non-treated section before treatment Cai: number of insects in non-treated section during observation Tb: number of insects in treated section before treatment Tai: number of insects in treated section during observation

For a further assay, the system named is cotton aphids. Description: Test Example 2: plant foot irrigation of cucumber seedling in urethane mat, cotton aphids inoculated one day after treatment. Particulars: 168 h; 500 ppm, 5 ml plant foot irrigation, urethane mat; aphids inoculated one day after treatment, counted seven days after; read-out: Control value. The method, then: The formulations were diluted with water so that the concentration of the active ingredient became 500 ppm and thus test diluents were prepared. On the other hand, a plant foot of cucumber seedling (second true leaf development stage) planted in a urethane mat was irrigated with any one of diluents (5 ml). One day after the treatment, the cucumber leaves were inoculated with 30 cotton aphids (all stages). Further seven days after, the number of survived cotton aphids parasitic on the cucumber leaves was counted, and the control value was calculated by the following equation. Control value(%)={1−(Cb×Tai)/(Cai×Tb)}×100 wherein each character represents the following meaning: Cb: number of insects in non-treated section before treatment Cai: number of insects in non-treated section during observation Tb: number of insects in treated section before treatment Tai: number of insects in treated section during observation

Assay [1] concerns cotton aphids (Aphis gossypii Glover). Kind of assay: Test Example 1: test diluent scattered on cucumber seedling inoculated with cotton aphids. As to conditions: 120 h, 500 ppm active ingredient, 10 ml scattered on cucumber seedling, counted five days after scattering, read-out: Control value. The method, then: The formulations were diluted with water so that the concentration of the active ingredient became 500 ppm and thus test diluents were prepared. On the other hand, a cucumber seedling (second true leaf development stage) planted in a plastic cup was inoculated with about 30 cotton aphids (Aphis gossypii Glover) and allowed to stand for one day. To the seedling, any one of the diluents (10 ml) was scattered. Five days after the scattering, the number of survived cotton aphids parasitic on the cucumber leaves was counted, and the control value was calculated by the following equation. Control value(%)={1−(Cb×Tai)/(Cai×Tb)}×100 wherein each character represents the following meaning: Cb: the number of insects in non-treated section before treatment Cai: the number of insects in non-treated section during observation Tb: the number of insects in treated section before treatment Tai: the number of insects in treated section during observation

Another assay concerns rice brown planthopper. Kind of assay: Test Example 6: plant foot irrigation of rice plant seedling, rice brown planthopper released after seven days. As to conditions: Nilaparvata lugens, 144 h; 500 ppm, 5 ml plant foot irrigation of rice seedling; first-instars released after seven days, counted six days after; read-out: Control value. The method, then: The formulations were diluted with water so that the concentration of the active ingredient became 500 ppm and thus test diluents were prepared. On the other hand, a plant foot of rice plant seedling (two weeks after seeding, second leaf development stage) planted in a plastic cup was irrigated with any one of diluents (5 ml). The seedling was kept in a green house of 25° C. for seven days. Thirty first-instars of rice brown planthopper were released to the seedling, which was kept in the green house at 25 C for six days. Thereafter, the number of survived rice brown planthopper parasitic on rice plant leaves was counted, and the control value was calculated by the following equation. Control value(%)={1−(Cb×Tai)/(Cai×Tb)}×100 wherein each character represents the following meaning: Cb: number of insects in non-treated section before treatment Cai: number of insects in non-treated section during observation Tb: number of insects in treated section before treatment Tai: number of insects in treated section during observation

The structures appear in SMILES notation. Some results are limits rather than exact numbers.

As to `Nc1cnccc1-c1nc2cc(C(F)(F)F)ccc2o1` [active compound 52, 2-(3-aminopyridin-4-yl)-5-(trifluoromethyl)benzoxazole], the pest or weed control at 500 ppm in the assay with tobacco whitefly is ≥ 90%.

As for `FC(F)(F)Sc1ccc2oc(-c3ccncc3)nc2c1` [active compound 76, 2-(pyridin-4-yl)-5-(trifluoromethylthio)benzoxazole], the pest or weed control at 500 ppm in the assay with cotton aphids was ≥ 90%.

Turning to `FC(F)(F)c1ccc2oc(-c3ccncc3-n3ccnc3)nc2c1` [active compound 56, 2-[3-(imidazole-1-yl)pyridin-4-yl]-5-(trifluoromethyl)benzoxazole], the pest or weed control at 500 ppm in the assay with cotton aphids was ≥ 90%.

On to `COCCOc1cnccc1-c1nc2cc(C(F)(F)F)ccc2o1` [active compound 120, 2-[3-(2-methoxyethoxy)pyridin-4-yl]-5-(trifluoromethyl)benzoxazole], for which the pest or weed control at 500 ppm in the assay with cotton aphids is ≥ 90%.

Consider `CCC(C)Oc1cnccc1-c1nc2cc(C(F)(F)F)ccc2o1` (stereo not shown) [active compound 119, 2-(3-sec-butoxypyridin-4-yl)-5-(trifluoromethyl)benzoxazole], for which, in the assay with cotton aphids, the pest or weed control at 500 ppm is ≥ 90%.

For the compound `CC(C)c1ccc2oc(-c3ccncc3)nc2c1` [active compound 5, 5-isopropyl-2-(pyridin-4-yl)-benzoxazole], the pest or weed control at 500 ppm (in assay [1]; in the assay with tobacco whitefly) was ≥ 90% throughout.

Take `CN(C)c1cnccc1-c1nc2cc(C(F)(F)F)ccc2o1` [active compound 131, dimethyl-{4-[5-(trifluoromethyl)benzoxazole-2-yl]pyridin-3-yl}amine]: in the assay on cotton aphids, the pest or weed control at 500 ppm was ≥ 90%.

`CCc1cnccc1-c1nc2cc(C(C)(C)C)ccc2o1` [active compound 105, 5-tert-butyl-2-(3-ethylpyridin-4-yl)benzoxazole]: the pest or weed control at 500 ppm (in assay [1]; in the assay on tobacco whitefly) was ≥ 90% each time.

Turning to `CCc1cnccc1-c1nc2cc(C(F)(F)F)c(Cl)cc2o1` [active compound 93, 6-chloro-2-(3-ethylpyridin-4-yl)-5-(trifluoromethyl)benzoxazole], the pest or weed control at 500 ppm in the assay with cotton aphids and in the assay with rice brown planthopper was ≥ 90% throughout.

Turning to `CC(C)COc1cnccc1-c1nc2cc(C(F)(F)F)ccc2o1` [active compound 116, 2-(3-isobutoxypyridin-4-yl)-5-(trifluoromethyl)benzoxazole], the pest or weed control at 500 ppm in assay [1] is ≥ 90%.

As to `CCc1ccc2oc(-c3ccncc3)nc2c1` [active compound 3, 5-ethyl-2-(pyridin-4-yl)-benzoxazole], the pest or weed control at 500 ppm with tobacco whitefly was ≥ 90%.

Consider `FC(F)(F)COc1cnccc1-c1nc2cc(C(F)(F)F)ccc2o1` [active compound 39, 2-[3-(2,2,2-trifluoroethyl)oxypyridin-4-yl]-5-(trifluoromethyl)benzoxazole], for which the pest or weed control at 500 ppm with rice brown planthopper was ≥ 90%.

As to `FC(F)(F)c1ccc2oc(-c3ccncc3OCC(F)(F)C(F)(F)F)nc2c1` [active compound 75, 2-[3-(2,2,3,3,3-pentafluoropropoxy)pyridin-4-yl]-5-(trifluoromethyl)benzoxazole], in the assay on rice brown planthopper, the pest or weed control at 500 ppm was ≥ 90%.

For `CCSc1cnccc1-c1nc2cc(C(F)(F)F)ccc2o1` [active compound 41, 2-(3-ethylthiopyridin-4-yl)-5-(trifluoromethyl)benzoxazole], the pest or weed control at 500 ppm in the assay with rice brown planthopper is ≥ 90%.

For `CC(C)(C)c1ccc2oc(-c3ccncc3OCC(F)(F)F)nc2c1` [active compound 101, 5-tert-butyl-2-[3-(2,2,2-trifluoroethoxy)pyridin-4-yl]benzoxazole], the pest or weed control at 500 ppm (in assay [1]; in the assay with tobacco whitefly; with rice brown planthopper) was ≥ 90% each time.

For `FC(F)(F)c1ccc2oc(-c3ccncc3-c3cccnc3)nc2c1` [active compound 128, 4-(5-trifluoromethyl-benzoxazole-2-yl)-[3,3′]bipyridinyl], the pest or weed control at 500 ppm with cotton aphids is ≥ 90%.

As to `FC(F)(F)c1ccc2oc(-c3ccncc3I)nc2c1` [active compound 29, 2-(3-iodopyridin-4-yl)-5-(trifluoromethyl)benzoxazole], in the assay with cotton aphids, the pest or weed control at 500 ppm was ≥ 90%.

Take `FC(F)COc1cnccc1-c1nc2cc(C(F)(F)F)ccc2o1` [active compound 110, 2-[3-(2,2-difluoroethoxy)pyridin-4-yl]-5-(trifluoromethyl)benzoxazole]: the pest or weed control at 500 ppm (in assay [1]; with cotton aphids; with tobacco whitefly; in the assay with rice brown planthopper) was ≥ 90% in each case.

As for `CC(C)(C)c1ccc2oc(-c3ccncc3)nc2c1` [active compound 6, 5-tert-butyl-2-(pyridin-4-yl)-benzoxazole], the pest or weed control at 500 ppm (in assay [1]; in the assay on tobacco whitefly) was ≥ 90% each time.

For the compound `FC(F)(F)c1ccc2nc(-c3ccncc3)oc2n1` [Active Compound 153, 2-(pyridin-4-yl)-5-(trifluoromethyl)oxazolo[5,4-b]pyridine], the pest or weed control at 500 ppm with tobacco whitefly was ≥ 90%.

On to `Fc1cc2oc(-c3ccncc3Cl)nc2cc1C(F)(F)F` [active compound 94], for which the pest or weed control at 500 ppm in the assay with cotton aphids was ≥ 90%.

As to `FC(F)(F)c1ccc2oc(-c3ccncc3OC3CCCC3)nc2c1` [active compound 115, 2-(3-cyclopentyloxypyridin-4-yl)-5-(trifluoromethyl)benzoxazole], the pest or weed control at 500 ppm in assay [1] is ≥ 90%.

As for `CC(Oc1cnccc1-c1nc2cc(C(F)(F)F)ccc2o1)C(F)(F)F` (stereo not shown) [active compound 111, 2-[3-(1-methyl-2,2,2-trifluoroethoxy)pyridin-4-yl]-5-(trifluoromethyl)benzoxazole], the pest or weed control at 500 ppm (in assay [1]; with tobacco whitefly; in the assay on rice brown planthopper) was ≥ 90% each time.

On to `COc1cnccc1-c1nc2cc(C(C)(C)C)ccc2o1` [active compound 100, 5-tert-butyl-2-(3-methoxypyridin-4-yl)benzoxazole], for which the pest or weed control at 500 ppm (in assay [1]; in the assay with tobacco whitefly; with rice brown planthopper) was ≥ 90% throughout.

Consider `FC(F)(F)c1ccc2oc(-c3ccncc3N3CCOCC3)nc2c1` [active compound 55, 2-[3-(morpholin-4-yl)pyridin-4-yl]-5-(trifluoromethyl)benzoxazole], for which the pest or weed control at 500 ppm with cotton aphids is ≥ 90%.

For `FC(F)(F)COc1cnccc1-c1nc2cc(C(F)(F)F)c(Cl)cc2o1` [active compound 92, 6-chloro-2-[3-(2,2,2-trifluoroethoxy)pyridin-4-yl]-5-(trifluoromethyl)benzoxazole], the pest or weed control at 500 ppm in the assay with rice brown planthopper was ≥ 90%.

Turning to `FC(F)(F)c1ccc2nc(-c3ccncc3Cl)oc2n1` [Active Compound 154, 2-(3-chloropyridin-4-yl)-5-(trifluoromethyl)oxazolo[5,4-b]pyridine], the pest or weed control at 500 ppm with tobacco whitefly is ≥ 90%.

For `CC(C)Oc1cnccc1-c1nc2cc(C(C)(C)C)ccc2o1` [active compound 104, 5-tert-butyl-2-(3-isopropoxypyridin-4-yl)benzoxazole], the pest or weed control at 500 ppm (in assay [1]; in the assay on tobacco whitefly) was ≥ 90% in each case.

Regarding `FC(F)(F)c1ccc2oc(-c3ccncc3N3CCCC3)nc2c1` [active compound 53, 2-[3-(pyrrolidine-1-yl)pyridin-4-yl]-5-(trifluoromethyl)benzoxazole], the pest or weed control at 500 ppm with tobacco whitefly was ≥ 90%.
